According to patent US7371539B2 (priority 2003, dated 2008):
Entries after “also recorded” stand apart in the source; their conditions may differ.

How the values were obtained:
Tor-His3 reporter = assay: Western assay of reporter degradation in liquid culture after cycloheximide (in vivo); assay type: cell-based, S. cerevisiae; conditions: PS-341 200 μM; Δpdr5 strains Pre10-FPR1 and Rpn10-FPR1
Description: The aforementioned growth assay was a convenient tool for isolating strains to further explore DTL. […] To address this point, degradation of the reporters was directly measured. Strains Pre10-FPR1 and Rpn10-FPR1 were singly transformed with plasmids that expressed hemagglutinin (HA) epitope-tagged versions of Tor-His3 and TorS1972R-His3. The transformants were grown in liquid culture to early log phase, whereupon cycloheximide was added to halt protein translation. Each culture was then split in two and rapamycin was added to one. Samples were collected at various times and whole-cell protein extracts were generated and used for Western analysis (FIGS. 4A-4H). […] These experiments confirm that the growth deficient phenotype seen on histidine-dropout media was due to the degradation of the Tor-His3 reporter and that the 26S proteasome is necessary for this to occur.
In both assays, rapamycin was added to a final concentration of 1 μM, cycloheximide was added to a final concentration of 30 ng/ml and PS-341 was added to a final concentration of 200 μM. For liquid cultures, samples were extracted at fixed time intervals (0, 30, 60, 90 minutes) and whole cell extracts were made. 25 μg of total protein was used from each sample, resolved by SDS-PAGE and transferred to PVDF membranes. […]

[1] = system: T1, Tor-His3 with purified 26S proteasomes from strain Rpn10-FPR1; assay: In vitro degradation assay with purified 26S proteasomes and purified reporter; assay type: biochemical, S. cerevisiae; conditions: PS-341 100 μM, rapamycin 1 μM
T1 construct: made in house; host or cells: reporter: E. coli DH5αPRO (PROTet.133 vector)
Source text: Whole, functional 26S proteasomes have been previously affinity-purified for use in biochemical assays (Leggett et al. (2002) Mol. Cell 10:495). The same procedure was used to isolate proteasomes from strain Rpn10-FPR1. HA epitope-tagged versions of Tor-His3 and TorS1972R-His3 were purified from a bacterial expression system and then mixed with the proteasomes, with or without rapamycin. Samples were extracted at regular intervals and reporter degradation was monitored by Western analysis (FIG. 5A). […] Once again, proteolysis of Tor-His3 could be halted upon the addition of the proteasome inhibitor PS-341.
26S proteasomes were affinity purified from strains Pre10-FPR1 and Rpn10 FPR1 using the Rpn11-TEV-ProA tag described previously (Leggett et al. (2002) Mol. Cell 10:495). Cells were grown in YPD, harvested, resuspended in 50 mM Tris-HCl [pH 8], 1 mM EDTA and lysed by French press. Lysates was centrifuged at 15,000×g for 25 minutes, filtered and incubated with IgG resin (ICN) for 1 hr at 4° C. Resin was collected in a column, washed with 100 bed volumes of 50 mM Tris-HCl [pH 8], 50 mM NaCl, 1 mM EDTA buffer and equilibrated with TEV-protease buffer (50 mM Tris-HCl [pH 7.5], 1 mM EDTA, 1 mM DTT). […] The integrity of the 26S complexes and presence of Pre10-FPR1 and Rpn10-FPR1 tagged subunits was analyzed by Coomassie staining, SDS-PAGE and immunodetection. […]

Structure (SMILES): CC(C)C[C@H](NC(=O)[C@H](Cc1ccccc1)NC(=O)c1cnccn1)B(O)O [PS-341]
- effect on degradation of Tor-His3 in the presence of rapamycin (Tor-His3 reporter): prevented Tor-His3 from degrading; also recorded: halted degradation of Tor-His3
- effect on proteolysis of Tor-His3 in vitro [1]: halted
